The test system of series [1] is PSP692. As to the kind of experiment: purified PSP692 (1 µM) in 1× phosphate-buffered saline (PBS) at pH 6.0. As to conditions: Segatella copri, 37°C.
Series [2] concerns PSP464. As to the kind of experiment: HRMS analysis of 11-mer gliadin peptide degradation by PSP464. Format: in vitro ADME, Stenotrophomonas maltophilia. Here is the method: Gliadin degradation reactions were performed in duplicate for PSP464 activity on the 11-mer and PSP692 activity on the 33-mer at time points of 30 min, 1 h, 2 h, and 4 h. Following incubation, duplicate reactions were pooled prior to downstream processing to minimize technical variability. Reactions were quenched by the addition of trifluoroacetic acid (TFA) in water to a final concentration of 0.1% (vol/vol). To remove intact enzyme and retain low-molecular-weight degradation products, samples were centrifuged through Microcon centrifugal filter units with a 10 kDa MWCO at room temperature for 30 min. The filtrate, containing peptides <10 kDa, was collected and subjected to C18 ZipTip protocol for desalting prior to LC-MS/MS analysis. The elution solvent for desalting was 50% acetonitrile with 0.1% formic acid in water.
Samples were analysed on a Bruker IMPACT HD mass spectrometer in HRMS mode. MS scans were acquired over an m/z range of 50–3,500 at high resolution in positive ion mode. Raw data were processed in MZMine v3.9 ([38]), and the fragment list was exported as an Excel list followed by manual annotation. Chromatograms were generated for identified gliadin-derived peptides across the time course.

The test system of series [3] is PSP464. The series is described as follows: purified PSP464 (1 µM) in 100 mM glycine-HCl buffer at pH 4.0. To be noted: Stenotrophomonas maltophilia, 37°C.
Series [4] concerns human gastrointestinal proteases. The series is described as follows: human gastrointestinal proteases. To be noted: cited from earlier work.
Series [5] concerns PSP692. As to the kind of experiment: purified recombinant PSP692 in pH 6 PBS buffer. As to conditions: Segatella copri, 37°C, up to 4 h.

Entries after “also recorded” stand apart in the source; their conditions may differ. Where no end group is shown, it is not given here. The star is where a group is joined. pNA = O=[N+]([O-])c1ccc(N*)cc1; Cbz = O=C(OCc1ccccc1)*

As for Cbz-Gly-Pro-pNA, in series [1], the cleaved bond result is given as “Pro-pNA”.
As for GPQQSFPEQEA [11-mer], the “intensity of parent peak (m/z ~1,218, +1) after incubation with PSP464” value in series [2] (all digestion time points, 30 min to 4 h, pooled duplicates) is “reduced”. The “peptide fragments formed from 11-mer by PSP464 (m/z 998 and 872)” value in series [2] (sequential C-terminal cleavage, sequences assigned from m/z) is “GPQQSFPEQ and GPQQSFPE”.
Take Cbz-Pro-Pro-Phe-pNA: in series [3], the cleaved bond result is given as “Phe-pNA”.
As to LQLQPFPQPQLPYPQPQLPYPQPQLPYPQPQPF, the not cleaved result in series [4] is listed as “evades degradation by human gastrointestinal proteases”. Moreover, the fragment found entry in series [5] was “LQLQP, major, 30 min; also recorded: QPFPQ; also recorded: QLQPFP, major, 30 min”.

Source of the values: PMC13339814 (Microbiology Spectrum, 2026).
